Assay results published in paper PMC9268591, “Anti-Inflammatory, Analgesic and Antioxidant Potential of New (2S,3S)-2-(4-isopropylbenzyl)-2-methyl-4-nitro-3-phenylbutanals and Their Corresponding Carboxylic Acids through In Vitro, In Silico and In Vivo Studies” (Molecules, 2022).

Columns and labels:
[1] = DPPH free radical scavenging assay
Method: The protocol of Brand-Williams et al. was used for the DPPH assay with some modifications. DPPH (4 mg) was dissolved in methanol (100 mL) to obtain a mixture of […] 1,1-diphenyl,2-picrylhydrazyl (DPPH). The stock solution of the various synthesized compounds was prepared in methanol with 1 mg/mL concentration. This stock solution was used to prepare different concentrations of test samples ranging within 1000–62.5 μg/mL. The 0.1 mL of each concentration (1000–62.5 μg/mL) was combined with the DPPH (3 mL) solution in methanol. The solution was kept at 23 °C for 15 min incubation, followed by the absorbance measurement deliberated at 517 nm. Gallic acid was used as a standard drug in this assay. The percentage DPPH radical scavenging potential was measured via the formula [44]: % radical scavenging potential=CAbs.−SAbs./CAbs.×100 where CAbs. is the absorbance of the control, and SAbs is the absorbance of test samples/standard.

5-LOX = target: T1, 5-LOX (Homo sapiens, UniProt P09917); assay: 5-Lipoxygenase (5-LOX) inhibition assay; type: biochemical; settings: read-out: 5LOX IC50 ± SEM
T1 construct: purchased Sigma Aldrich Germany 437996
T1 sequence (P09917 1-674): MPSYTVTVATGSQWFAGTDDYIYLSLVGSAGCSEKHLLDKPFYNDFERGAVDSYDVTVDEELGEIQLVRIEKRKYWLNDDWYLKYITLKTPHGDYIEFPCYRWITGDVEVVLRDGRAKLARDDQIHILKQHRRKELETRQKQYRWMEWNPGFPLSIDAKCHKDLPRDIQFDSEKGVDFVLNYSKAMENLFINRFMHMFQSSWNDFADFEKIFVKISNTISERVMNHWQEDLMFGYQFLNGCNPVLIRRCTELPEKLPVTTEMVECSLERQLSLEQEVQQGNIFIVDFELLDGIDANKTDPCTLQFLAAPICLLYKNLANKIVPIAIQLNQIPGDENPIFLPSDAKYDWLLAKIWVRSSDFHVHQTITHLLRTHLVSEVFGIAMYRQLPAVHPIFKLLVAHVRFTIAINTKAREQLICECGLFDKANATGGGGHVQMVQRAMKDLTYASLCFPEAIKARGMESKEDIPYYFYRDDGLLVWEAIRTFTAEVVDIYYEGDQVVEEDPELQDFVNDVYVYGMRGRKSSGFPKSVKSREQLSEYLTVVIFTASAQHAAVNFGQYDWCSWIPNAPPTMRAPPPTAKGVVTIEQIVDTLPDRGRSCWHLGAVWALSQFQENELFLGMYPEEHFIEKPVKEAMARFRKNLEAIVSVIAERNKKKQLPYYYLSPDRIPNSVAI
Method: The lipoxygenase inhibition assay on the synthesized compounds was carried out as per the standard reported method. […] The 5-LOX enzyme solution was also prepared at a strength of 10,000 units/mL. The linoleic acid (80 mM) was employed as a substrate in lipoxygenase assay. The buffer (phosphate) was also prepared for the assay having 50 mM strength and a pH of 6.3. The samples of synthesized compounds (250 µL), phosphate buffer (250 µL) and mixture of the enzyme were mixed and incubated for five minutes. Afterwards, the solution of the substrate (0.6 mM, 1000 µL) was mixed with lipoxygenase enzyme mixture with shaking. […] The percent inhibition was calculated as per the standard method. […]
91- 7, GmbH USA). these all were purchased from Sigma Aldrich Germany. Buffer solution
containing (KH2PO4 & K2HPO4), was of best quality with high purity. […]

COX-2 = target: T2, COX-2 (Homo sapiens, UniProt P35354); assay: Cyclooxygenase (COX-2) inhibition assay; type: biochemical; settings: for SI (calculated selectivity index): COX-2 selectivity over COX-1; for IC50: read-out: IC50 ± SEM COX-2
T2 construct: purchased Sigma Aldrich Germany C0858
T2 sequence (P35354 18-604): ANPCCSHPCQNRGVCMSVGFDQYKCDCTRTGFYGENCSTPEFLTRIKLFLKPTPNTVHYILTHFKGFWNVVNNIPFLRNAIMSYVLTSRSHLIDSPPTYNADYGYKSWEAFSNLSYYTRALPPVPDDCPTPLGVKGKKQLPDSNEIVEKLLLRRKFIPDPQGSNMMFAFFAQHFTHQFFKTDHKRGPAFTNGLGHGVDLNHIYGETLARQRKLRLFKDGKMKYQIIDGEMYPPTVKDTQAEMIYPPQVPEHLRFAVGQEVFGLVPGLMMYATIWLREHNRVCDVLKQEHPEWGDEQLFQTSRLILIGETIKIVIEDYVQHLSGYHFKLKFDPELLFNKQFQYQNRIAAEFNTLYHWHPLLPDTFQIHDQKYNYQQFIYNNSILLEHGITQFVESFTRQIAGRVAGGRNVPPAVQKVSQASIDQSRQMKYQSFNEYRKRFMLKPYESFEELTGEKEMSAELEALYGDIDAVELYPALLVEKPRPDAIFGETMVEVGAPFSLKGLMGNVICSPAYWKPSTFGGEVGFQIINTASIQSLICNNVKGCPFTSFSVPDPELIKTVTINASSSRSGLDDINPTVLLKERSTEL
Method: (§1) The COX-1 and 2 enzymes’ inhibitions assays on the synthesized compounds were carried out as per the standard reported method. Initially, the respective enzyme solution was prepared in a concentration of 300 units/mL. The enzyme activation was started with keeping 10 µL of enzyme solution in the cold for up to 10 min. To this enzyme solution was added the substrate solution in HCl (0.1 M Trish buffer with pH of 8.0). The co-factor 50 µL solution contained TMPD (N,N,N,N-tetramethyl-p-phenylenediamine dihydrochloride, 0.24 mM), hematin (1 mM) and glutathione (0.9 mM). […] The reaction was initiated by adding arachidonic acid (20 µL, 30 mM). The overall solution was incubated for five minutes. Afterwards, the absorbance was recorded on a UV-visible instrument at 570 nm. From the absorbance value of every sample, the percentage inhibition was calculated as per the standard method.
Cyclooxygenase (COX-2) was acquired from human recombinant (Catalog No:C0858) and […]
co-factor substances in this study like N, N_, N_-tetramethyl-p-phenylenediamine […]
91- 7, GmbH USA). these all were purchased from Sigma Aldrich Germany. Buffer solution containing (KH2PO4 & K2HPO4), was of best quality with high purity. […]
was purchased from Pfizer Pharmaceutical and Libra (Pvt.) limited . Tramadol, Diclofenac was purchased from Alliance Pharmaceutical Pakistan.

COX-1 = COX-1 (Homo sapiens, UniProt P23219); assay: Cyclooxygenase (COX-1) inhibition assay; type: biochemical; settings: read-out: IC50 ± SEM COX-1
Method: as §1

[2] = ABTS free radical scavenging assay
Method: The total antioxidant activity of test compound (HBH) was estimated using the 2, 2-azinobis [3-ethylbenzthiazoline]-6-sulfonic acid (ABTS). The 100 mL of ABTS solution (7 mM) was added to 100 mL of potassium persulfate ([…], 2.45 mM) solution, mixed, and kept in the dark for 12 h to generate free radicals. […]. Gallic acid at 2 mg/2 mL of water was used as a standard drug. Likewise, for the test sample, different concentrations (1000–62.5 μg/mL) of the […] were made for absorbance measurements at the same wavelength. The 300 μL of each test solution was added to 3 mL of ABTS solution to measure the absorbance at 745 nm through a UV-visible spectrophotometer. A similar volume of each standard solution was taken to determine the absorbance at the same wavelength. The ABTS percent scavenging potential was calculated via the above formula [45].

albino mice [3] = assay: Acute toxicity; type: in vivo; settings: highest dose 2000 mg/kg
Text: Before testing our selected compounds for in vivo experiments, we performed the toxicity test as per the protocol. Four groups of animals were labelled, with eight animals in each group. The control group was given normal saline, while other groups were given different concentrations of the selected compounds.

albino mice [4] = assay: Acetic acid induced writhing test; type: in vivo, Swiss albino mice; settings: standard drug 10 mg/kg
Method: The acetic induced analgesic assay on the compounds FM10 and FM12 was performed to determine the role of the peripheral pathway. The albino mice of both sexes were divided into two groups. Compounds FM10 and FM12 were administered to both the groups in doses of 25 and 50 mg/kg. After 1 h, acetic acid was injected intraperitoneally in the strength of 10 mL/kg. The negative control was Tween 80 1% solution in the strength of 10 mL/kg. […] The activities in animals were determined from the number of stretchings and writings.

albino mice [5] = assay: Carrageenan-induced inflammation; type: in vivo, Swiss albino mice; settings: standard aspirin (100 mg/kg in method)
Method: After the acute toxicity studies, the carrageenan-induced inflammation assay was performed on the compounds having a safety profile within limit. Forty (40) albino mice of both sexes were alienated into five different groups, with eight mice in each group. Group I was tagged as the negative control group and was administered dimethylsulfoxide (10 mL/kg, 10% v/v) and phosphate buffer (150 µL). Group II was tagged as the standard/positive control group and received a dose of aspirin (100 mg/kg in 0.9% normal saline). The remaining groups (III, IV and V) were tagged as experimental groups and received synthesized compounds (25, 50 and 100 mg/kg in DMSO) and Tween-80 in normal saline. After half an hour, carrageenan suspension (0.05 mL, 1% w/v in saline) was injected into the animals. After the injection of the irritant/carrageenan, the inflammation in the paws was measured by a plethysmometer in intervals (1 to 5 h). The inflammation in the paws of animals in different groups was compared with that of the vehicle, and the percent anti-inflammatory activities were recorded as per the standard method.

Chain of COX-1 (P23219 24-599): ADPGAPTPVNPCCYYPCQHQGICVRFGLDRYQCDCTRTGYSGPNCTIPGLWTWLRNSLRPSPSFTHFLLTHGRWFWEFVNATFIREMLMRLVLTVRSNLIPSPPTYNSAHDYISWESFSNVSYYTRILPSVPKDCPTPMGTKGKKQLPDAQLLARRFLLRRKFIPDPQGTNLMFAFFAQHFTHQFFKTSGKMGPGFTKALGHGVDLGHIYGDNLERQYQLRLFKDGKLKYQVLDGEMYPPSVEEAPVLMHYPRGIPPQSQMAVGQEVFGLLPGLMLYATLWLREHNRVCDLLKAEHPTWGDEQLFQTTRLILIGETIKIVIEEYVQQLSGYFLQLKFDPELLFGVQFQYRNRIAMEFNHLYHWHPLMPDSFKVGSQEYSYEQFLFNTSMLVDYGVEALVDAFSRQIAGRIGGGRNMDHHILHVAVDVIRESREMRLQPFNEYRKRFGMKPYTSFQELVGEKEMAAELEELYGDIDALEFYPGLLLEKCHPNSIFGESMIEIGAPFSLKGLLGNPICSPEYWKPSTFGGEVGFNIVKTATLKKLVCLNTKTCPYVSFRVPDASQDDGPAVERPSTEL

| melting point [°C] | IC50 [1] [µM] | IC50 (5-LOX) [µM] | SI (calculated selectivity index) (COX-2) | IC50 (COX-2) [µM] | IC50 (COX-1) [µM] | IC50 [2] [µM] | SMILES | Acute toxicity observation (albino mice [3]) | Mean inhibition of writhes (albino mice [4]) [%] | Anti-inflammatory activity, carrageenan assay (albino mice [5]; first hour) [%] | Anti-inflammatory activity, carrageenan assay (albino mice [5]; fourth hour) [%] |
| --- | --- | --- | --- | --- | --- | --- | --- | --- | --- | --- | --- |
| 161 to 163 | 49.7 | 6.17 ± 0.23 | 11.6 | 4.72 ± 0.08 | 54.8 ± 1.95 | 37.7 | CC(C)c1ccc(C[C@](C)(C=O)[C@@H](C[N+](=O)[O-])c2ccco2)cc1 (mixture of isomers) [FM6, (2S,3S)-3-(furan-2-yl)-2-(4-isopropylbenzyl)-2-methyl-4-nitrobutanal] | – | – | – | – |
| 129 to 131 | 184 | 16.3 ± 1.02 | 7.2 | 8.15 ± 0.98 | 58.4 ± 2.08 | 191 | COc1ccccc1[C@H](C[N+](=O)[O-])[C@@](C)(C=O)Cc1ccc(C(C)C)cc1 (mixture of isomers) [FM5, (2S,3S)-2-(4-isopropylbenzyl)-3-(2-methoxyphenyl)-2-methyl-4-nitrobutanal] | – | – | – | – |
| – | – | – | – | – | – | – | CC(=O)Oc1ccccc1C(=O)O [aspirin, acetylsalicylic acid] | – | 73.01 | 52.77 | 61.43 |
| 149 to 151 | 54.4 | 1.81 ± 0.11 | 12.2 | 1.21 ± 0.03 | 14.8 ± 1.19 | 62.9 | CC(C)c1ccc(C[C@](C)(C=O)[C@@H](C[N+](=O)[O-])c2ccccc2)cc1 (mixture of isomers) [FM1, (2S,3S)-2-(4-isopropylbenzyl)-2-methyl-4-nitro-3-phenylbutanal] | – | – | – | – |
| 243 to 245 | 22.5 | 0.73 ± 0.05 | 23.2 | 1.09 ± 0.01 | 25.3 ± 1.22 | 24.7 | CC(C)c1ccc(C[C@](C)(C(=O)O)[C@@H](C[N+](=O)[O-])c2ccccc2)cc1 [FM7, (2S,3S)-2-(4-isopropylbenzyl)-2-methyl-4-nitro-3-phenylbutanoic Acid] | – | – | – | – |
| 173 to 175 | 55.4 | 0.64 ± 0.01 | 15.1 | 2.51 ± 0.24 | 38 ± 1.65 | 42 | CC(C)c1ccc(C[C@](C)(C=O)[C@@H](C[N+](=O)[O-])c2ccc(Cl)cc2)cc1 (mixture of isomers) [FM2, (2S,3S)-3-(4-chlorophenyl)-2-(4-isopropylbenzyl)-2-methyl-4-nitrobutanal] | – | – | – | – |
| 135 to 137 | 15.1 | 9.69 ± 0.99 | 3.6 | 3.53 ± 0.18 | 12.8 ± 1.08 | 11.5 | Cc1ccc([C@H](C[N+](=O)[O-])[C@@](C)(C=O)Cc2ccc(C(C)C)cc2)cc1 (mixture of isomers) [FM3, (2S,3S)-2-(4-isopropylbenzyl)-2-methyl-4-nitro-3-(p-tolyl)butanal] | – | – | – | – |

| SMILES | melting point [°C] | IC50 [1] [µM] | IC50 (5-LOX) [µM] | SI (calculated selectivity index) (COX-2) | IC50 (COX-2) [µM] | IC50 (COX-1) [µM] | IC50 [2] [µM] | Acute toxicity observation (albino mice [3]) | Mean inhibition of writhes (albino mice [4]) [%] | Anti-inflammatory activity, carrageenan assay (albino mice [5]; first hour) [%] | Anti-inflammatory activity, carrageenan assay (albino mice [5]; fourth hour) [%] |
| --- | --- | --- | --- | --- | --- | --- | --- | --- | --- | --- | --- |
| COc1ccc([C@H](C[N+](=O)[O-])[C@@](C)(C=O)Cc2ccc(C(C)C)cc2)cc1 (mixture of isomers) [FM4, (2S,3S)-2-(4-isopropylbenzyl)-3-(4-methoxyphenyl)-2-methyl-4-nitrobutanal] | – | 21.1 | 0.98 ± 0.12 | 42.8 | 0.74 ± 0.03 | 31.7 ± 1.37 | 25.8 | very mild seizures and disturbances in breath (temporary) | – | – | – |
